Source: patent US20090018134A1, “Compounds - 945” (AstraZeneca AB, priority 2007, published 2009)

Molecular target: T1, mTOR (Homo sapiens, UniProt P42345)
T1 construct: FLAG; made in house
Experiment: In Vitro mTOR Kinase Assay (Echo), Test (a)(ii)
Assay type: biochemical
Conditions: read-out: mTOR Kinase Assay (Echo)
Text: (a)(ii) In Vitro mTOR Kinase Assay (Echo)
The assay used AlphaScreen technology (Gray et al., Analytical Biochemistry, 2003, 313: 234-245) to determine the ability of test compounds to inhibit phosphorylation by recombinant mTOR.
A C-terminal truncation of mTOR encompassing amino acid residues 1362 to 2549 of mTOR (EMBL Accession No. L34075) was stably expressed as a FLAG-tagged fusion in HEK293 cells as described by Vilella-Bach et al., […], 1999, 274, 4266-4272. The HEK293 FLAG-tagged mTOR (1362-2549) stable cell line was routinely maintained at 37° C. with 5% CO2 up to a confluency of 70-90% in Dulbecco's modified Eagle's growth medium (DMEM; Invitrogen Limited, Paisley, UK Catalogue No. 41966-029) containing 10% heat-inactivated foetal calf serum (FCS; Sigma, Poole, Dorset, UK, Catalogue No. F0392), 1% L-glutamine (Gibco, Catalogue No. 25030-024) and 2 mg/ml Geneticin (G418 sulfate; Invitrogen Limited, UK Catalogue No. 1013 1-027). Following expression in the mammalian HEK293 cell line, expressed protein was purified using the FLAG epitope tag using standard purification techniques.
Aliquots (120 nl […]) of each compound dilution were acoustically dispensed placed using a Labcyte Echo 550 into a well of a Greiner 384-well low volume (LV) white polystyrene plate (Greiner Bio-one).
These assay solutions were incubated for 2 hours at room temperature.
Each reaction was stopped by the addition of […] of a mixture of EDTA (50 mM), bovine serum albumin (BSA; 0.5 mg/mL) and Tris-HCl pH 7.4 buffer (50 mM) containing p70 S6 Kinase (T389) 1A5 Monoclonal Antibody (Cell Signalling Technology, Catalogue No. 9206B) and AlphaScreen Streptavidin donor and Protein A acceptor beads (200 ng; Perkin Elmer, Catalogue No. 6760002B and 6760137R respectively) were added and the assay plates were left overnight at room temperature in the dark. The resultant signals arising from laser light excitation at 680 nm were read using a Packard Envision instrument.
The phosphorylated biotinylated peptide that is associated with AlphaScreen Streptavidin donor beads forms a complex with the p70 S6 Kinase (T389) 1A5 Monoclonal Antibody that is associated with Alphascreen Protein A acceptor beads. Upon laser light excitation at 680 nm, the donor bead: acceptor bead complex produces a signal that can be measured. Accordingly, the presence of mTOR kinase activity results in an assay signal. In the presence of an mTOR kinase inhibitor, signal strength is reduced.
mTOR enzyme inhibition for a given test compound was expressed as an IC50 value.

T1 sequence (P42345 1362-2549): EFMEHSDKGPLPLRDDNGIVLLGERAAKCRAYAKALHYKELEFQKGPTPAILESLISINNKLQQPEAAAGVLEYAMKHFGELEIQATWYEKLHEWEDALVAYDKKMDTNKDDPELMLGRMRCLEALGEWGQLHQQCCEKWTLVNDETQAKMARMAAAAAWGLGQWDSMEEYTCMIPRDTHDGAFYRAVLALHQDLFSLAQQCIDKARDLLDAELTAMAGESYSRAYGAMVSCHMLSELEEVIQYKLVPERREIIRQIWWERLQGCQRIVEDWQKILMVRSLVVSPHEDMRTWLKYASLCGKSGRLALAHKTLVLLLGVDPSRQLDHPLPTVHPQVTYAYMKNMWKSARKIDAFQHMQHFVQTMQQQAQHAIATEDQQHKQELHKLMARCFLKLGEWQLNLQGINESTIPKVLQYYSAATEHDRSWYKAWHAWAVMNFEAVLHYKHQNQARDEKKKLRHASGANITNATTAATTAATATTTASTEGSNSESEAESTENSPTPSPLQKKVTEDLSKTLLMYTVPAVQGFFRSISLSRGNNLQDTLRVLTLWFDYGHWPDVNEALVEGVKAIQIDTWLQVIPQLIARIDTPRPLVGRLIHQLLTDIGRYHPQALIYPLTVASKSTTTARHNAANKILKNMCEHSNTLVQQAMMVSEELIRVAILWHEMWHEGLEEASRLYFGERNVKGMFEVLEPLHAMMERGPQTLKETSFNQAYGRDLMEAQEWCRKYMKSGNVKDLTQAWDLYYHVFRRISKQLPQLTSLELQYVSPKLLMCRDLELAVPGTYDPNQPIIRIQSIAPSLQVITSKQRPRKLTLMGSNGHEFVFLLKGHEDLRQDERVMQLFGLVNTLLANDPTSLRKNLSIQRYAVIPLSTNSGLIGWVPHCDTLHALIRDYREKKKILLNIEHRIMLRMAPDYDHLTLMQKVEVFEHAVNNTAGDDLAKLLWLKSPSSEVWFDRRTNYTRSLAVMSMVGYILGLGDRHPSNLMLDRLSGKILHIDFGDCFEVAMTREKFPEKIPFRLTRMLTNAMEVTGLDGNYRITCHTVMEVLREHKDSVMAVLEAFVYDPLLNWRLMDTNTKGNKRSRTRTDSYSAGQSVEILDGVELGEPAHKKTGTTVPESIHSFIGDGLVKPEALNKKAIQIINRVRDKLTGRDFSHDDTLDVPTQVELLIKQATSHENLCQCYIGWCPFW

Compound | IC50 [nM]
CCNC(=O)Nc1ccc(-c2nc(N3CCOC[C@@H]3C)cc(C3(S(C)(=O)=O)CC3)n2)cc1 [Example 1, 3-Ethyl-1-[4-[4-[(3S)-3-methylmorpholin-4-yl]-6-(1-methylsulfonylcyclopropyl)pyrimidin-2-yl]phenyl]urea] | 2.76
CNC(=O)Nc1ccc(-c2nc(N3CCOC[C@@H]3C)cc(C3(S(C)(=O)=O)CC3)n2)cc1 [Example 1a] | 2.79
C[C@H]1COCCN1c1cc(C2(S(C)(=O)=O)CC2)nc(-c2ccc(NC(=O)NCc3cnn(C)c3)cc2)n1 [Example 2a, 1-[4-[4-[(3S)-3-methylmorpholin-4-yl]-6-(1-methylsulfonylcyclopropyl)pyrimidin-2-yl]phenyl]-3-[(1-methylpyrazol-4-yl)methyl]urea] | 93.2
C[C@H]1COCCN1c1cc(C2(S(C)(=O)=O)CC2)nc(-c2ccc(NC(=O)NCC(C)(C)O)cc2)n1 [Example 2aa, 3-(2-hydroxy-2-methylpropyl)-1-[4-[4-[(3S)-3-methylmorpholin-4-yl]-6-(1-methylsulfonylcyclopropyl)pyrimidin-2-yl]phenyl]urea] | 27.4
C[C@H]1COCCN1c1cc(C2(S(C)(=O)=O)CC2)nc(-c2ccc(NC(=O)NC3(CO)CC3)cc2)n1 [Example 2ab, 3-[1-(hydroxymethyl)cyclopropyl]-1-[4-[4-[(3S)-3-methylmorpholin-4-yl]-6-(1-methylsulfonylcyclopropyl)pyrimidin-2-yl]phenyl]urea] | 55.3
C[C@H]1COCCN1c1cc(C2(S(C)(=O)=O)CC2)nc(-c2ccc(NC(=O)NC3COC3)cc2)n1 [Example 2ac, 1-[4-[4-[(3S)-3-methylmorpholin-4-yl]-6-(1-methylsulfonylcyclopropyl)pyrimidin-2-yl]phenyl]-3-(oxetan-3-yl)urea] | 6.41
C[C@H]1COCCN1c1cc(C2(S(C)(=O)=O)CC2)nc(-c2ccc(NC(=O)Nc3ccn(C)n3)cc2)n1 [Example 2ad, 1-[4-[4-[(3S)-3-methylmorpholin-4-yl]-6-(1-methylsulfonylcyclopropyl)pyrimidin-2-yl]phenyl]-3-(1-methylpyrazol-3-yl)urea] | 0.705
C[C@H]1COCCN1c1cc(C2(S(C)(=O)=O)CC2)nc(-c2ccc(NC(=O)Nc3ncns3)cc2)n1 [Example 2ae, 1-[4-[4-[(3S)-3-methylmorpholin-4-yl]-6-(1-methylsulfonylcyclopropyl)pyrimidin-2-yl]phenyl]-3-(1,2,4-thiadiazol-5-yl)urea] | 0.72
C[C@H]1COCCN1c1cc(C2(S(C)(=O)=O)CC2)nc(-c2ccc(NC(=O)NCC#N)cc2)n1 [Example 2af, 3-(cyanomethyl)-1-[4-[4-[(3S)-3-methylmorpholin-4-yl]-6-(1-methylsulfonylcyclopropyl)pyrimidin-2-yl]phenyl]urea] | 46.2
C[C@H]1COCCN1c1cc(C2(S(C)(=O)=O)CC2)nc(-c2ccc(NC(=O)NCc3ncn[nH]3)cc2)n1 [Example 2ag, 1-[4-[4-[(3S)-3-methylmorpholin-4-yl]-6-(1-methylsulfonylcyclopropyl)pyrimidin-2-yl]phenyl]-3-(2H-1,2,4-triazol-3-ylmethyl)urea] | 14.9
C[C@H]1COCCN1c1cc(C2(S(C)(=O)=O)CC2)nc(-c2ccc(NC(=O)NC3CCC3)cc2)n1 [Example 2c, 3-cyclobutyl-1-[4-[4-[(3S)-3-methylmorpholin-4-yl]-6-(1-methylsulfonylcyclopropyl)pyrimidin-2-yl]phenyl]urea] | 1.21
C[C@H]1COCCN1c1cc(C2(S(C)(=O)=O)CC2)nc(-c2ccc(NC(=O)NCc3ncc[nH]3)cc2)n1 [Example 2d, 3-(1H-imidazol-2-ylmethyl)-1-[4-[4-[(3S)-3-methylmorpholin-4-yl]-6-(1-methylsulfonylcyclopropyl)pyrimidin-2-yl]phenyl]urea] | 23.9
C[C@H]1COCCN1c1cc(C2(S(C)(=O)=O)CC2)nc(-c2ccc(NC(=O)NCCN(C)C)cc2)n1 [Example 2e, 3-(2-dimethylaminoethyl)-1-[4-[4-[(3S)-3-methylmorpholin-4-yl]-6-(1-methylsulfonylcyclopropyl)pyrimidin-2-yl]phenyl]urea] | 279
C[C@H]1COCCN1c1cc(C2(S(C)(=O)=O)CC2)nc(-c2ccc(NC(=O)NC(C)(C)CO)cc2)n1 [Example 2f, 3-(1-hydroxy-2-methyl-propan-2-yl)-1-[4-[4-[(3S)-3-methylmorpholin-4-yl]-6-(1-methylsulfonylcyclopropyl)pyrimidin-2-yl]phenyl]urea] | 4.33
C[C@H]1COCCN1c1cc(C2(S(C)(=O)=O)CC2)nc(-c2ccc(NC(=O)Nc3ccon3)cc2)n1 [Example 2g, 1-[4-[4-[(3S)-3-methylmorpholin-4-yl]-6-(1-methylsulfonylcyclopropyl)pyrimidin-2-yl]phenyl]-3-(1,2-oxazol-3-yl)urea] | 0.137
C[C@H]1COCCN1c1cc(C2(S(C)(=O)=O)CC2)nc(-c2ccc(NC(=O)Nc3ccccc3)cc2)n1 [Example 2h, 1-[4-[4-[(3S)-3-methylmorpholin-4-yl]-6-(1-methylsulfonylcyclopropyl)pyrimidin-2-yl]phenyl]-3-phenyl-urea] | 0.272
C[C@H]1COCCN1c1cc(C2(S(C)(=O)=O)CC2)nc(-c2ccc(NC(=O)NCCO)cc2)n1 [Example 2i, 3-(2-hydroxyethyl)-1-[4-[4-[(3S)-3-methylmorpholin-4-yl]-6-(1-methylsulfonylcyclopropyl)pyrimidin-2-yl]phenyl]urea] | 2.07
CC(C)NC(=O)Nc1ccc(-c2nc(N3CCOC[C@@H]3C)cc(C3(S(C)(=O)=O)CC3)n2)cc1 [Example 2j, 1-[4-[4-[(3S)-3-methylmorpholin-4-yl]-6-(1-methylsulfonylcyclopropyl)pyrimidin-2-yl]phenyl]-3-propan-2-yl-urea] | 12
CCCNC(=O)Nc1ccc(-c2nc(N3CCOC[C@@H]3C)cc(C3(S(C)(=O)=O)CC3)n2)cc1 [Example 2k, 1-[4-[4-[(3S)-3-methylmorpholin-4-yl]-6-(1-methylsulfonylcyclopropyl)pyrimidin-2-yl]phenyl]-3-propyl-urea] | 4.06
CC(C)CNC(=O)Nc1ccc(-c2nc(N3CCOC[C@@H]3C)cc(C3(S(C)(=O)=O)CC3)n2)cc1 [Example 2l, 1-[4-[4-[(3S)-3-methylmorpholin-4-yl]-6-(1-methylsulfonylcyclopropyl)pyrimidin-2-yl]phenyl]-3-(2-methylpropyl)urea] | 11.6
C[C@H]1COCCN1c1cc(C2(S(C)(=O)=O)CC2)nc(-c2ccc(NC(=O)NCC3CC3)cc2)n1 [Example 2m, 3-(cyclopropylmethyl)-1-[4-[4-[(3S)-3-methylmorpholin-4-yl]-6-(1-methylsulfonylcyclopropyl)pyrimidin-2-yl]phenyl]urea] | 5.89
CC(CO)NC(=O)Nc1ccc(-c2nc(N3CCOC[C@@H]3C)cc(C3(S(C)(=O)=O)CC3)n2)cc1 (stereo partly drawn) [Example 2n, 3-(1-hydroxypropan-2-yl)-1-[4-[4-[(3S)-3-methylmorpholin-4-yl]-6-(1-methylsulfonylcyclopropyl)pyrimidin-2-yl]phenyl]urea] | 8.44
COc1ccc(NC(=O)Nc2ccc(-c3nc(N4CCOC[C@@H]4C)cc(C4(S(C)(=O)=O)CC4)n3)cc2)cn1 [Example 2o, 3-(6-methoxypyridin-3-yl)-1-[4-[4-[(3S)-3-methylmorpholin-4-yl]-6-(1-methylsulfonylcyclopropyl)pyrimidin-2-yl]phenyl]urea] | 0.851

Same assay, conditions: table of enzyme assay Test (a)(ii); read-out: Test (a)(ii) IC50

Compound | IC50 [nM]
1-[4-[4-[1-(2,4-difluorophenyl)sulfonylcyclopro-pyl]-6-[(3S)-3-methylmorpholin-4-yl]pyrimidin-2-yl]phenyl]-3-(2-hydroxyethyl)urea [Example 57b] | 4.57
3-(2,2-difluoroethyl)-1-[4-[4-[1-(2,4-difluorophenyl)sulfonylcyclopro-pyl]-6-[(3S)-3-methylmorpholin-4-yl]pyrimidin-2-yl]phenyl]urea [Example 57d] | 10
3-(3-hydroxypropyl)-1-[4-[4-[1-(3-hydroxypropylsulfonyl)cyclopro-pyl]-6-[(3S)-3-methylmorpholin-4-yl]pyrimidin-2-yl]phenyl]thiourea [Example 37f] | 120
C[C@H]1COCCN1c1cc(C2(S(C)(=O)=O)CC2)nc(-c2ccc(NC(=O)NC3CCC3)cc2)n1 [Example 2c, 3-cyclobutyl-1-[4-[4-[(3S)-3-methylmorpholin-4-yl]-6-(1-methylsulfonylcyclopropyl)pyrimidin-2-yl]phenyl]urea] | 1.86
C[C@H]1COCCN1c1cc(C2(S(C)(=O)=O)CC2)nc(-c2ccc(NC(=O)Nc3ccon3)cc2)n1 [Example 2g, 1-[4-[4-[(3S)-3-methylmorpholin-4-yl]-6-(1-methylsulfonylcyclopropyl)pyrimidin-2-yl]phenyl]-3-(1,2-oxazol-3-yl)urea] | 0.231
CCCNC(=O)Nc1ccc(-c2nc(N3CCOC[C@@H]3C)cc(C3(S(C)(=O)=O)CC3)n2)cc1 [Example 2k, 1-[4-[4-[(3S)-3-methylmorpholin-4-yl]-6-(1-methylsulfonylcyclopropyl)pyrimidin-2-yl]phenyl]-3-propyl-urea] | 3.81
COc1ccc(NC(=O)Nc2ccc(-c3nc(N4CCOC[C@@H]4C)cc(C4(S(C)(=O)=O)CC4)n3)cc2)cn1 [Example 2o, 3-(6-methoxypyridin-3-yl)-1-[4-[4-[(3S)-3-methylmorpholin-4-yl]-6-(1-methylsulfonylcyclopropyl)pyrimidin-2-yl]phenyl]urea] | 0.403
